Results reported in US20190388364A1, “[…] A LOCAL […]” (GRÜNENTHAL GMBH, priority 2017, published 2019).

System: guinea pig skin twitch response
Assay: guinea pig skin test (skin twitch response, local anesthetic effect)
Type: in vivo
Conditions: for Stimuli per twitch response (means ± s.e.m.): max 20 stimuli; for number of animals with abrogated twitch response (max. effect): no twitch response after 20 stimuli
Protocol: The local anesthetic effects of Tapentadol were studied in a guinea pig skin test.
Animals: Male Pirbright White guinea pigs from a commercial breeder (ca. 400 g body weights) were used for the study. The animals were housed under standard conditions: room temperature […], rel. air changes per hour, air movement <0.2 m/sec, light/dark rhythm (06.00-18.00 h light, 18.00-06.00 h dark). The animals had access to water ad libitum and to an exclusive diet of “Herilan RM 204” (Eggersmann Company, Rinteln/Germany). Before the experiment they lived in groups of 5-8 animals in type IV Makrolone cages (Ebeco Company, Castrop-Rauxel/Germany). There were at least five days between delivery of the animals and the test day.
Tapentadol (test compound was) dissolved in 0.9% NaCl solution. Application route: intradermal application. Application volume: 0.1 ml per application site. Concentrations: 0.05/0.01/0.3/0.5%.
Application route: intradermal application. Application volume: 0.1 ml per application site. Concentrations: 0.1/0.3/1.0.
The experiments were performed according to a modified method originally described by Bülbring and Wajda (J Pharm Exp Ther 85: 78-84, 1945). After erasure of the back of the animals 0.1 ml of solutions of the test compounds or of vehicle (0.9% NaCl) were injected intradermally. There were 3 injection sites each on both flanks of the back with a craniocaudal distance between them of 1.5 cm. A twitch response of the skin musculature was provoked by contact of these sites with the tip of an injection cannula. The number of the stimuli needed to provoke a twitch response was registered. A maximum of 20 stimuli per site was allowed. […] Thereafter, solution with different concentrations of the test compounds or vehicle were injected and the skin sensitivity was evaluated at 2, 5, 10, 15 and 20 min. The different test solutions were injected on both flanks of the back into the cranial, intermediate or caudal test site in a randomized order.
Test parameter: Stimuli per twitch response.
Each concentration of the test compounds was tested at 6-7 sites. The means±s.e.m. of stimuli that were necessary to induce a twitch response were calculated for the different times after application. In addition, number of tests with a complete abolition of skin sensitivity (i.e., no twitch response after 20 stimuli) was used to calculate an EC50-value (with 95% confidence limits) according to Litchfield and Wilcoxon.

[1] = 0.1 wt.-% intradermal, 2 min after application
[2] = 0.1 wt.-% intradermal, 5 min after application
[3] = 0.1 wt.-% intradermal, 10 min after application
[4] = 0.1 wt.-% intradermal, 15 min after application
[5] = 0.1 wt.-% intradermal, 20 min after application
[6] = 0.3 wt.-% intradermal, 2 min after application
[7] = 0.3 wt.-% intradermal, 5 min after application
[8] = 0.3 wt.-% intradermal, 10 min after application
[9] = 0.3 wt.-% intradermal, 15 min after application
[10] = 0.3 wt.-% intradermal, 20 min after application

CC[C@@H](c1cccc(O)c1)[C@@H](C)CN(C)C [Tapentadol, (1R,2R)-3-(3-dimethylamino-1-ethyl-2-methyl-propyl)-phenol]
Stimuli per twitch response (means ± s.e.m.) (0.05 wt.-% intradermal, 0.1 ml per site, 2 min after application): 6 ± 3
Stimuli per twitch response (means ± s.e.m.) (0.05 wt.-% intradermal, 5 min after application): 1
Stimuli per twitch response (means ± s.e.m.) (0.05 wt.-% intradermal, 10 min after application): 1
Stimuli per twitch response (means ± s.e.m.) (0.05 wt.-% intradermal, 15 min after application): 1
Stimuli per twitch response (means ± s.e.m.) (0.05 wt.-% intradermal, 20 min after application): 1
number of animals with abrogated twitch response (max. effect) (0.05 wt.-% intradermal): 1 of 7
Stimuli per twitch response (means ± s.e.m.) [1]: 12 ± 4
Stimuli per twitch response (means ± s.e.m.) [2]: 2 ± 1
Stimuli per twitch response (means ± s.e.m.) [3]: 1
Stimuli per twitch response (means ± s.e.m.) [4]: 1
Stimuli per twitch response (means ± s.e.m.) [5]: 1
number of animals with abrogated twitch response (max. effect) (0.1 wt.-% intradermal): 3 of 6
Stimuli per twitch response (means ± s.e.m.) [6]: 20
Stimuli per twitch response (means ± s.e.m.) [7]: 20
Stimuli per twitch response (means ± s.e.m.) [8]: 4 ± 3
Stimuli per twitch response (means ± s.e.m.) [9]: 2 ± 1
Stimuli per twitch response (means ± s.e.m.) [10]: 1
number of animals with abrogated twitch response (max. effect) (0.3 wt.-% intradermal): 7 of 7
Stimuli per twitch response (means ± s.e.m.) (0.5 wt.-% intradermal, 2 min after application): 20
Stimuli per twitch response (means ± s.e.m.) (0.5 wt.-% intradermal, 5 min after application): 20
Stimuli per twitch response (means ± s.e.m.) (0.5 wt.-% intradermal, 10 min after application): 10 ± 3
Stimuli per twitch response (means ± s.e.m.) (0.5 wt.-% intradermal, 15 min after application): 3 ± 2
Stimuli per twitch response (means ± s.e.m.) (0.5 wt.-% intradermal, 20 min after application): 1
number of animals with abrogated twitch response (max. effect) (0.5 wt.-% intradermal): 7 of 7
time of maximum effect after application (intradermal, 0.05 to 0.5%): 2 min
local anesthetic effect at 20 min after application (intradermal, up to the highest concentration (0.5%)): completely disappeared

COc1cccc(C2(O)CCCCC2CN(C)C)c1 (centres unmarked) [Tramadol]
Stimuli per twitch response (means ± s.e.m.) [1]: 1
Stimuli per twitch response (means ± s.e.m.) [2]: 1
Stimuli per twitch response (means ± s.e.m.) [3]: 1
Stimuli per twitch response (means ± s.e.m.) [4]: 1
Stimuli per twitch response (means ± s.e.m.) [5]: 1
Stimuli per twitch response (means ± s.e.m.) [6]: 8 ± 3
Stimuli per twitch response (means ± s.e.m.) [7]: 6 ± 3
Stimuli per twitch response (means ± s.e.m.) [8]: 3 ± 2
Stimuli per twitch response (means ± s.e.m.) [9]: 3 ± 2
Stimuli per twitch response (means ± s.e.m.) [10]: 3 ± 2
Stimuli per twitch response (means ± s.e.m.) (1.0 wt.-% intradermal, 2 min after application): 20
Stimuli per twitch response (means ± s.e.m.) (1.0 wt.-% intradermal, 5 min after application): 20
Stimuli per twitch response (means ± s.e.m.) (1.0 wt.-% intradermal, 10 min after application): 20
Stimuli per twitch response (means ± s.e.m.) (1.0 wt.-% intradermal, 15 min after application): 15 ± 3
Stimuli per twitch response (means ± s.e.m.) (1.0 wt.-% intradermal, 20 min after application): 14 ± 3
